# Assay results reported in ChEMBL document CHEMBL5120894, “Isolation, Biosynthetic Investigation, and Biological Evaluation of Maniwamycin G, an Azoxyalkene Compound from Streptomyces sp. TOHO-M025” (J Nat Prod, 2022).
# The source made the active and inactive calls. No cut-off for these calls is given here.
# Tests used:
# [1] = Inhibition of quorum sensing system in Chromobacterium violaceum CV026 assessed as reduction in violacein production incubated for 24 hrs
# [2] = Inhibition of quorum sensing system in Chromobacterium violaceum CV026 assessed as reduction in violacein production at 1 mg/ml incubated for 24 hrs relative to control
SMILES,IC50 [1],further results
CCCC/C=C/[N+]([O-])=N/[C@H](C)[C@@H](C)O,120 µg/mL,
CCCC/C=C/[N+]([O-])=N/C(C)C(O)C(N)=O (stereo not given),500 µg/mL,
CCCC/C=C/[N+]([O-])=N/[C@H](C)[C@H](O)CC(=O)OC,,inhibition [2]: 40%
CCCC(O)/C=C/[N+]([O-])=N/C(C)C(C)O (stereo not given),,inhibition [1]: Active
CCCC/C=C/[N+]([O-])=N/[C@H](C)[C@H](C)O,120 µg/mL,
